Like-named read-outs stand apart in the source and are kept apart here. Square brackets hold non-standard residues; d marks the D form. Peptide text beside a SMILES is read from it. dPhe(F5) = N[C@H](Cc1c(F)c(F)c(F)c(F)c1F)C(=O)O; dBpa = N[C@H](Cc1ccc(C(=O)c2ccccc2)cc1)C(=O)O; dCha = N[C@H](CC1CCCCC1)C(=O)O
Key:
[1] = system: thrombin/antithrombin complex; test: Thrombin/antithrombin complex in plasma of LPS treated mice (ELISA); assay type: in vivo, mouse; details: C57BL/6 mice, CBP501 7.5 mg/kg, plasma 3 hours after
From the text: The data were obtained in each condition out of four animals.

MIAPaCa2 [2] = test: Sensitization of MIAPaCa2 to bleomycin or adriamycin (sub-G1 population, flow cytometry); assay type: cell-based, human; details: bleomycine 10 μg/ml or adriamycin 1 μg/ml, 3 hours, then 21 hours
From the text: FIGS. 3A and 3B Human pancreatic cancer derived cell line MIAPaCa2 treated with (FIG. 3A) bleomycin (Bleo) or (FIG. 3B) adriamycin (ADR) with various doses of compounds. Harvested cells were stained for their DNA and analyzed with flow cytometry. The % population of sub-G1 cells are indicated as dead cells.
The G2 checkpoint abrogating activity of various compounds at different doses on human pancreatic cancer derived cell line MIAPaCa2 treated with bleomycine (Bleo) or adriamycin (ADR) was studied. Briefly, cells were incubated with the compounds and bleomycine (10 μg/ml) or adriamycin (1 μg/ml) for 3 hours. The medium was changed and incubated for an additional 21 hours. Harvested cells were stained for DNA by propium iodide and analyzed with flow cytometry as previously described. The % of the sub-G1 cell population is indicated as dead cells in FIG. 3.

[3] = system: MIAPaCa2 human pancreatic carcinoma cells; test: MIAPaCa2 subcutaneous xenograft in scid mice; assay type: in vivo, mouse
Method: Day0 indicates treatment initiation. Mean tumor sizes with standard deviation for each treatment group are indicated on the Y-axis and the number of days following treatment initiation are indicated on the X-axis.
To study in vivo efficacy of the compounds, MIAPaCa2 human pancreatic carcinoma cells were implanted subcutaneously in scid mice. The treatment was initiated when the size of the primary tumor became 0.1 cm3 (Day0) or larger, e.g., 7 or 8 mm in diameter. CDDP (3 mg/kg) and CBP 501 (10 or 40 mg/kg) were intra-peritoneally administered alone or in combination. Tumor sizes were measured using calipers three times a week, and volumes were calculated using the formula: weight (mg)=[width (mm)2×length (mm)]/2. Mean tumor sizes for each treatment group are plotted (n=4) against the days after the start of treatment (FIG. 10).

[4] = system: CBP501-sensitive human cancer cell lines; test: Intracellular accumulation of CDDP; assay type: cell-based
Jurkat cells [5] = test: M phase checkpoint abrogation / non specific toxicity, colchicine treated Jurkat cells; assay type: cell-based
Method: Flow cytometry analysis of M phase checkpoint abrogation by the compounds was performed using human T cell leukemia Jurkat cell line treated with colchicine (5 μg/ml or 0.5 μg/ml) and various doses of peptide/peptidomimetics for 24 hr (FIG. 12). The DNA of the cells was stained and analyzed by flow cytometry as described above.
The “Appearance of side effect when used alone” indicates the peptide/peptidomimetic dose that produced Jurkat cell cycle disturbance, i.e., the appearance of significant amounts of SubG1 cells (dead cells) or cells in which the DNA content of each varies more than usual. […] The “G2 abrogating dose” indicates the peptide/peptidomimetic dose with 40 μg/ml bleomycine that produced detectable G2 checkpoint abrogation activity following treatment for 24 hours. The “Appearance of side effect when used with colchicine” indicates the peptide/peptidomimetic dose with 5 μg/ml colchicine that produced Jurkat cell cycle disturbance following treatment for 24 hours.
A comparison between G2 checkpoint abrogating activity and non specific toxicity (M checkpoint abrogation) by CB501 was performed. In brief, Jurkat cells were treated with 40 μg/ml bleomycin or 0.5 μg/ml colchicine for G2 checkpoint abrogating activity and non specific toxicity, respectively. The DNA amount in each of the treated cells was analyzed by flow cytometry, as previously described.

[6] = Maximal tolerated dose in mouse by single injection; details: in vivo, observed for a week
Jurkat cells [7] = test: Side effect of peptide used alone: Jurkat cell cycle disturbance (flow cytometry); assay type: cell-based; details: dose that produced Jurkat cell cycle disturbance, peptide alone
Procedure, shortened: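 Cell-cycle profiles were obtained by flow cytometry after propidium iodide staining in Krishan's solution for 1 hr at 4 °C. The value is the peptide dose given alone that disturbed the cell cycle, seen as significant SubG1 (dead) cells or unusually variable DNA content.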

HUVEC = test: Growth of normal human umbilical endothelial cells (HUVEC); assay type: cell-based; details: peptide by itself
Method: Similar studies were performed using normal human umbilical endothelial cells (HUVEC).

MCF-7 = test: G2 checkpoint abrogation by CBP501 combined with cis-platin, flow cytometry; assay type: cell-based; details: MCF-7, mammary gland; cis-platin 3 μg/ml 3 hr, then 45 hr
Method: (§1) The medium was aspirated, fresh medium without these compounds was added and the cells were incubated for an additional 45 hr. The cells including floating cells were harvested using trypsin-EDTA solution, incubated with Krishan's solution and analyzed for DNA content by flow cytometry as previously described.

MK45 = test: as above; assay type: cell-based; details: MK45, stomach; cis-platin 3 μg/ml 3 hr, then 45 hr
Method: as §1

MIAPaCa2 [8] = details: three hours exposure
Method: The medium was changed and incubated an additional 24, 48 or 72 hour. Following incubation, 20 μl of alamarBlue 90% reagent was added to each well for another 6 hours for detection of cell viability by fluorescent intensity. Fluorescent intensity was measured using a Spectrafluor Plus plate reader with exitation 530 nm and emission 590 nm. The IC50 was calculated (Table 6).

[9] = cited from earlier work
advanced solid tumors = details: monotherapy, cited from earlier work
Jurkat cells [10] = test: G2 checkpoint abrogation, flow cytometry of bleomycin treated Jurkat cells; assay type: cell-based, human
Method: Cell-cycle analysis The cell cycle status of the cells treated with bleomycin or adriamcin were analyzed by flow cytometry as described by Kawabe (1997) Nature 385:454-458. In brief, two million cells were re-suspended and incubated in 200 μl Krishan's solution (0.1% Sodium citrate, 50 μg/ml PI, 20 μg/ml RNase A and 0.5% NP-40) for 1 hr at 4° C. and analyzed by a flow cytometry, FACScan™ (Beckton Dickinson, Mountain View, Calif.) with the program CELLQuest™ (Beckton Dickinson).
Flow cytometry analysis of G2 checkpoint abrogation was performed using human leukemia derived Jurkat cell line. In brief, cultured cells were treated with various doses of peptide/peptidomimetic and 40 μg/ml bleomycine for 24 hr. The DNA of the cells was stained with propidium iodide and analyzed by flow cytometry.
The G2 checkpoint abrogating activity of various arginine rich sequences at different doses on cells treated with bleomycine was studied. Briefly, peptides were added to culture medium of Jurkat cells with bleomycin (40 μg/ml) at 0.2 μg/ml, 0.39 μg/ml, 0.78 μg/ml, 1.56 μg/ml, 3.125 μg/ml, 6.25 μg/ml, 12.5 μg/ml, 25 μg/ml and 50 μg/ml. Cells were subsequently harvested after 24 hours, stained with Krishan's solution, and analyzed with flow cytometry as previously described.

**Q.** What does the source list for `N=C(N)NCCC[C@@H](NC(=O)[C@@H](CCCNC(=N)N)NC(=O)[C@@H](CCC(N)=O)NC(=O)[C@@H](CCCNC(=N)N)NC(=O)[C@@H](CCCNC(=N)N)NC(=O)[C@@H](CCCNC(=N)N)NC(=O)[C@@H](CC1CCCCC1)NC(=O)[C@@H](Cc1c(F)c(F)c(F)c(F)c1F)NC(=O)[C@@H](CO)NC(=O)[C@@H](Cc1c[nH]c2ccccc12)NC(=O)[C@@H](CO)NC(=O)[C@H](N)Cc1ccc(C(=O)c2ccccc2)cc1)C(=O)O` [CBP501, (d-Bpa)(d-Ser)(d-Trp)(d-Ser)(d-Phe-2,3,4,5,6-F)(d-Cha)(d-Arg)(d-Arg)(d-Arg)(d-Gln)(d-Arg)(d-Arg)] (H-[dBpa][dS][dW][dS][dPhe(F5)][dCha][dR][dR][dR][dQ][dR][dR]-OH; N-terminus and C-terminus assumed)?
**A.** Solubility in water (Solubility in water): soluble in water; Thrombin/anti-thrombin complexes in vivo [1]: increased thrombin/anti-thrombin complexes; Sensitization of MIAPaCa2 cells to bleomycin and adriamycin (% sub-G1, dead cells) (MIAPaCa2 [2]): sensitized MIAPaCa2 cells to both bleomycin and adriamycin in a dose dependent manner; Tumor growth, CBP501 treatment alone ([3]; CBP501 10 or 40 mg/kg ip): suppresses the growth of human pancreatic cancer cell in vivo; Anti-tumor activity of cisplatin in combination with CBP501 ([3]; CDDP 3 mg/kg and CBP501 10 or 40 mg/kg ip): increased the anti-tumor activity of cisplatin; Intracellular accumulation of CDDP, CDDP combined with CBP501 vs CDDP alone [4]: 1.5 to 3 times; Non specific toxicity (M checkpoint abrogation), dose up to which absent (Jurkat cells [5]; 0.5 μg/ml colchicine, unchanged percentage of M phase arrested cells): > 50 µM; M phase cell cycle arrest and/or non specific toxicity induced by colchicine (in words) (Jurkat cells [5]; FIG. 12): does not affect M phase cell cycle arrest and/or non specific toxicity induced by colchicine; Appearance of side effect when used with Colchicine (Jurkat cells [5]; dose with 5 μg/ml colchicine that produced Jurkat cell cycle disturbance, 24 hours): >25 µM; MTD at 1 week ([6]; ip, single intra-peritoneal injection, read-out: MTD (ip)): 98.8 mg/kg; MTD at 1 week ([6]; single intravenous injection, read-out: MTD (iv)): 10 mg/kg; Appearance of side effect when used alone (Jurkat cells [7]): >50 µM; Growth of normal cells (HUVEC) (HUVEC): does not affect the growth of HUVEC cells; G2 checkpoint abrogating dose of CBP501, cis-platin (MCF-7): >10 µM; G2 checkpoint abrogating dose of CBP501, cis-platin (MK45): >10 µM; IC50 (MIAPaCa2 [8]; read-out: IC50 24 hr, CBP501 with 10 uM cisplatin, with 10 uM cisplatin, additional 24 hour): 0.6 µM; IC50 (MIAPaCa2 [8]; read-out: IC50 24 hr, additional 24 hour): 6 µM; IC50 (MIAPaCa2 [8]; read-out: IC50 48 hr, CBP501 with 10 uM cisplatin, with 10 uM cisplatin, additional 48 hour): 1 µM; IC50 (MIAPaCa2 [8]; read-out: IC50 48 hr, additional 48 hour): 10 µM; IC50 (MIAPaCa2 [8]; read-out: IC50 72 hr, CBP501 with 10 uM cisplatin, with 10 uM cisplatin, additional 72 hour): 6 µM; IC50 (MIAPaCa2 [8]; read-out: IC50 72 hr, additional 72 hour): 13 µM; Patients with dose limiting allergic reactions (grade 3) ([9]; CBP501 36.4 mg/m^2 and cisplatin 75 mg/m^2): two out of six; MTD of CBP501 in combination with cisplatin ([9]; with cisplatin 75 mg/m^2, once every 21 days): 24.3 mg/m^2; Stable disease (advanced solid tumors; 60-min i.v. infusion days 1, 8, 15 every 28 days): Two patients achieved 7 cycles of treatment with stable disease; Discontinuation due to toxicity (advanced solid tumors; days 1-8-15 every 28 days): No patients discontinued due to toxicity; G2 checkpoint abrogating activity (in words) (Jurkat cells [10]; Jurkat cells with bleomycin 40 μg/ml): abrogated in a dose dependent manner; G2 abrogating dose (Jurkat cells [10]; dose with 40 μg/ml bleomycine giving detectable G2 checkpoint abrogation, 24 hours): ≥0.39 µM
